According to PubChem BioAssay (NCI):
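Protocol summary: plate cells (96-well), add compound at 5 concentrations, incubate 48 h, interpolate endpoints linearly. Definition used: TGI = concentration required for complete inhibition of growth.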

Legend:
Assay in all cases: DTP human tumour cell line panel, 48 h
[1] = system: DMS 273 small cell lung
[2] = system: LXFL 529 NSCLC
[3] = system: DMS 114 small cell lung
[4] = system: KM20L2 colon
[5] = system: M19-MEL melanoma
[6] = system: XF 498 CNS
[7] = system: DLD-1 colon
[8] = system: HOP-18 NSCLC

Compound	TGI [1]	TGI [2]	TGI [3]	TGI [4]	TGI [5]	TGI [6]	TGI [7]	TGI [8]
BrC1=CCC23CC=C(Br)[C@H]4CC2(COC3)C[C@@H]1O4 (stereo partly specified)	> 100 µM	> 100 µM	> 100 µM	> 100 µM	> 100 µM	> 100 µM		
Cc1ccc(NCC(=O)N2CC(=O)Nc3ccccc32)c(C)c1	> 100 µM	> 100 µM		> 100 µM	> 100 µM	> 100 µM	> 100 µM	> 100 µM
O=c1cc(-c2ccccc2)c2ccccc2[nH]1	> 100 µM	> 100 µM	51.4 µM		> 100 µM		> 100 µM	> 100 µM
[N-]=[N+]=NC(CCl)c1cn([C@H]2C[C@H](O)[C@@H](CO)O2)c(=O)[nH]c1=O (stereo partly specified)	> 100 µM	> 100 µM	> 100 µM	> 100 µM	> 100 µM		> 100 µM	> 100 µM
